Target: T1, P2X purinoceptor 7 [R270H] (Homo sapiens, UniProt Q99572, R270H)
T1 construct: gene P2RX7
Experiment: Inhibition Assay
Protocol: Evaluation of a human P2X7 receptor inhibitory activity Stably expressing cell line (1321N1 cell transfected with the human P2X7 receptor gene (GenBank accession number NM_002562.5 including T606C and G952A SNP)) was used. The cells were seeded in a 384-well microtiter plate at a concentration of 8000 cells/well and cultured in the medium (10% fetal bovine serum, 25 mM HEPES, 1% penicillin and streptomycin in DMEM) for one day at 37° C. under 5% carbon dioxide atmosphere. After replacing with 20 μL of the HBSS buffer (20 mM HEPES, 55.6 mM D-glucose, 1× HBSS(−), pH7.4-7.5), 15 μL of 17.3 μM Yo-Pro solution in the HBSS buffer was added. The plate was placed in high-throughput cellular screening system FLIPR TETRA (Molecullar Devices, LLC.) and 15 μL of 130 μM BzATP solution in the HBSS buffer was added. Measurement of fluorescence intensity by FLIPR TETRA was started. After eight minutes, 15 μL of DMSO solutions containing different concentrations of the compound of the present invention as prepared by dilution with the HBSS buffer were dispensed to each well through the built-in automatic dispenser, and the measurement of fluorescence intensity was continued for 20 minutes. The maximum fluorescence intensity without the compound of the present invention is calculated as 0% inhibition and the maximum fluorescence intensity when the reference compound was added is calculated as 100% inhibition.

T1 sequence (Q99572 whole entry R270H, looked up): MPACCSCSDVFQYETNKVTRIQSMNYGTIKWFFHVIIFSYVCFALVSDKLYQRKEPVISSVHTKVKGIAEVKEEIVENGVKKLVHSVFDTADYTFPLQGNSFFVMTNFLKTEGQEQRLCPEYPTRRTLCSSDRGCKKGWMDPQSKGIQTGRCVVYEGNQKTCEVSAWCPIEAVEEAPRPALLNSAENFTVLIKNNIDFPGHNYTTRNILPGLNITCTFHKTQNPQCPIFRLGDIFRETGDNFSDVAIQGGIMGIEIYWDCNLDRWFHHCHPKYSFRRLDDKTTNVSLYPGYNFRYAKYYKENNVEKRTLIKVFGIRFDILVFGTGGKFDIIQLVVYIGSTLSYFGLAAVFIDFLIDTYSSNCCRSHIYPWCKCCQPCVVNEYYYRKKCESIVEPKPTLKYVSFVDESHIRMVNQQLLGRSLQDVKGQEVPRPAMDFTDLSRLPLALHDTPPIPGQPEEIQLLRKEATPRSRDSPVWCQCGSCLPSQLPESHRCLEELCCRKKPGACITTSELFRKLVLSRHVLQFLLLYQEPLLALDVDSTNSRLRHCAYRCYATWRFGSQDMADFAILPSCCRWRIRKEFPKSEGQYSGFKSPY

SMILES | IC50 [nM]
COc1cc(Nc2nc(=O)c(F)c3n2C(c2cc(F)cc(F)c2)CC3)c(C)cc1F (stereo not drawn) [US11066409, Compound I-0099] | < 10
Cc1cc(F)c(CO)cc1NC1=NC(=O)N(C)C2=NCC(c3cc(F)c(F)c(F)c3)N12 (stereo not drawn) [US11066409, Compound I-0168] | 23
Cc1ccc(OCCO)cc1NC1=NC(=O)N(C)C2=NCC(c3cc(F)c(F)c(F)c3)N12 (stereo not drawn) [US11066409, Compound I-0171] | 19

Reference: BindingDB's records for patent US11066409 (Shionogi, 2021)
